Measurements reported in patent publication US10202377B2, “3-(1H-benzo[D]imidazol-2-yl)-1H-pyrazolo[3,4-C]pyridine and therapeutic uses thereof” (Samumed, LLC, priority 2014, dated 2019).

Experiments:
[1] = test system: primary human fibroblasts derived from IPF patients (LL29 cells); assay: Inhibition of fibrosis (αSMA staining) in TGF-β1-treated primary human fibroblasts from IPF patients; type: cell-based; conditions: Fibroblast, 96 h, TGF-β1 20 ng/mL, 4 days
How it was run: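 LL29 IPF fibroblasts in F12 with 1% FBS were stimulated with TGF-β1 (20 ng/mL) and incubated 4 days at 37 °C. SYTOX-positive dead cells were excluded, and αSMA-positive cells were counted by immunostaining as % of total. Values were normalized to TGF-β1/DMSO wells on the same plate, and EC50 derived.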

[2] = test system: Wnt activity (Sp5-Luc reporter, SW480 colon carcinoma cells); assay: Sp5-Luc Wnt reporter gene screening assay in SW480 colon carcinoma cells; conditions: Homo sapiens
Method: The screening assay for Wnt activity is described as follows.
SW480 colon carcinoma cells were transduced with a lentiviral vector expressing luciferase with a human Sp5 promoter consisting of a sequence of eight TCF/LEF binding sites. SW480 cells stably expressing the Sp5-Luc reporter gene and a hygromycin resistance gene were selected by treatment with 150 μg/ml of hygromycin for 7 days. These stably transduced SW480 cells were expanded in cell culture and used for all further screening activities. For Sp5-Luc reporter gene assays, the cells were plated at 10,000 cells/well in 96-well plates with growth medium containing 10% fetal calf serum and incubated overnight at 37° C. and 5% CO2. […] Compound transfer from serially diluted source plates to assay plates containing the cells was accomplished using a pintool (Multimek 96, Beckman equipped with V&P Scientific FP1S50H pins) based liquid handling protocol. This protocol used a slotted pin to transfer 50 nl of compound from a source plate well to an assay plate well containing 50 μl of cells in growth medium. […] Control wells received 50 nl of DMSO treatment for normalization and calculating IC50 values. The treated cells were incubated at 37° C. and 5% CO2 for an additional forty-two hours. Following incubation, the growth medium was removed and 50 μl of BrightGlo luminescence reagent (Promega) was added to each well of the 96-well assay plates. The plates were placed on an orbital shaker for 5 min and then luminescence was quantified on the Victor3 (Perkin Elmer) plate reader.

Compound | EC50 [1] [µM] | IC50 [2] [µM]
Cc1cn(-c2cccc3[nH]c(-c4n[nH]c5cnc(-c6cncc(NC(=O)C7CCC7)c6)cc45)nc23)cn1 [Compound 202, N-(5-(3-(4-(4-Methyl-1H-imidazol-1-yl)-1H-benzo[d]imidazol-2-yl)-1H-pyrazolo[3,4-c]pyridin-5-yl)pyridin-3-yl)cyclobutanecarboxamide] | 0.009 | 0.0632
Fc1ccc(-c2cccc3[nH]c(-c4n[nH]c5cnc(-c6cncc(CN7CCCC7)c6)cc45)nc23)cc1 [Compound 40, 3-(4-(4-Fluorophenyl)-1H-benzo[d]imidazol-2-yl)-5-(5-(pyrrolidin-1-ylmethyl)pyridin-3-yl)-1H-pyrazolo[3,4-c]pyridine] | 0.078 | 0.287
O=C(Nc1cncc(-c2cc3c(-c4nc5c(-c6ccc(F)cc6)cccc5[nH]4)n[nH]c3cn2)c1)C1CCC1 [Compound 46, N-(5-(3-(4-(4-Fluorophenyl)-1H-benzo[d]imidazol-2-yl)-1H-pyrazolo[3,4-c]pyridin-5-yl)pyridin-3-yl)cyclobutanecarboxamide] | 0.094 | 0.0489
CC(C)(C)CC(=O)Nc1cncc(-c2cc3c(-c4nc5c(-c6ccccc6F)cccc5[nH]4)n[nH]c3cn2)c1 [Compound 68, N-(5-(3-(4-(2-Fluorophenyl)-1H-benzo[d]imidazol-2-yl)-1H-pyrazolo[3,4-c]pyridin-5-yl)pyridin-3-yl)-3,3-dimethylbutanamide] | 1.67 | 0.164
CCCC(=O)Nc1cncc(-c2cc3c(-c4nc5c(-c6cc(F)cc(CNS(C)(=O)=O)c6)cccc5[nH]4)n[nH]c3cn2)c1 [Compound 433, N-(5-(3-(4-(3-Fluoro-5-(methylsulfonamidomethyl)phenyl)-1H-benzo[d]imidazol-2-yl)-1H-pyrazolo[3,4-c]pyridin-5-yl)pyridin-3-yl)butyramide] | 0.009 | 0.0285
CCC(=O)Nc1cncc(-c2cc3c(-c4nc5c(-c6cccc(F)c6)cccc5[nH]4)n[nH]c3cn2)c1 [Compound 1, N-(5-(3-(4-(3-Fluorophenyl)-1H-benzo[d]imidazol-2-yl)-1H-pyrazolo[3,4-c]pyridin-5-yl)pyridin-3-yl)propionamide] | 0.009 | 0.0439
CC(C)C(=O)Nc1cncc(-c2cc3c(-c4nc5c(-c6cccs6)cccc5[nH]4)n[nH]c3cn2)c1 [Compound 321, N-(5-(3-(4-(Thiophen-2-yl)-1H-benzo[d]imidazol-2-yl)-1H-pyrazolo[3,4-c]pyridin-5-yl)pyridin-3-yl)isobutyramide] | 0.306 | 0.0163
CC(C)CC(=O)Nc1cncc(-c2cc3c(-c4nc5c(-c6cc(O)cc(F)c6)cccc5[nH]4)n[nH]c3cn2)c1 [Compound 1350, N-(5-(3-(4-(3-Fluoro-5-hydroxyphenyl)-1H-benzo[d]imidazol-2-yl)-1H-pyrazolo[3,4-c]pyridin-5-yl)pyridin-3-yl)-3-methylbutanamide] | 0.009 | > 10
Cc1ccc(-c2cccc3[nH]c(-c4n[nH]c5cnc(-c6cncc(NC(=O)C(C)C)c6)cc45)nc23)s1 [Compound 373, N-(5-(3-(4-(5-Methylthiophen-2-yl)-1H-benzo[d]imidazol-2-yl)-1H-pyrazolo[3,4-c]pyridin-5-yl)pyridin-3-yl)isobutyramide] | 0.014 | 0.0326
Fc1cccc(-c2cccc3[nH]c(-c4n[nH]c5cnc(-c6ccccn6)cc45)nc23)c1 [Compound 953, 3-(4-(3-Fluorophenyl)-1H-benzo[d]imidazol-2-yl)-5-(pyridin-2-yl)-1H-pyrazolo[3,4-c]pyridine] | 0.009 | 0.25
CS(=O)(=O)NCc1cc(F)cc(-c2cccc3[nH]c(-c4n[nH]c5cnc(-c6cncnc6)cc45)nc23)c1 [Compound 442, N-(3-Fluoro-5-(2-(5-(pyrimidin-5-yl)-1H-pyrazolo[3,4-c]pyridin-3-yl)-1H-benzo[d]imidazol-4-yl)benzyl)methanesulfonamide] | 0.009 | 0.026
c1ccc(-c2cccc3[nH]c(-c4n[nH]c5cnc(-c6cncc(CNCC7CCCC7)c6)cc45)nc23)nc1 [Compound 154, 1-Cyclopentyl-N-((5-(3-(4-(pyridin-2-yl)-1H-benzo[d]imidazol-2-yl)-1H-pyrazolo[3,4-c]pyridin-5-yl)pyridin-3-yl)methyl)methanamine] | 0.009 | 0.596
Fc1cccc(-c2cccc3[nH]c(-c4n[nH]c5cnc(-c6ccncc6)cc45)nc23)c1 [Compound 952, 3-(4-(3-Fluorophenyl)-1H-benzo[d]imidazol-2-yl)-5-(pyridin-4-yl)-1H-pyrazolo[3,4-c]pyridine] | 9.99 | 0.053
CC(C)Nc1cncc(-c2cc3c(-c4nc5c(-c6cccnc6)cccc5[nH]4)n[nH]c3cn2)c1 [Compound 90, N-Isopropyl-5-(3-(4-(pyridin-3-yl)-1H-benzo[d]imidazol-2-yl)-1H-pyrazolo[3,4-c]pyridin-5-yl)pyridin-3-amine] | 0.009 | 0.0139
O=C(Nc1cncc(-c2cc3c(-c4nc5c(-c6cccc(F)c6)cccc5[nH]4)n[nH]c3cn2)c1)C1CCC1 [Compound 20] | 0.01 | 0.0744
CC(C)CC(=O)Nc1cncc(-c2cc3c(-c4nc5c(-c6ccc(F)cc6)cccc5[nH]4)n[nH]c3cn2)c1 [Compound 28, N-(5-(3-(4-(4-Fluorophenyl)-1H-benzo[d]imidazol-2-yl)-1H-pyrazolo[3,4-c]pyridin-5-yl)pyridin-3-yl)-3-methylbutanamide] | 0.741 | 0.0908
CCCC(=O)Nc1cncc(-c2cc3c(-c4nc5c(-c6cccs6)cccc5[nH]4)n[nH]c3cn2)c1 [Compound 329, N-(5-(3-(4-(Thiophen-2-yl)-1H-benzo[d]imidazol-2-yl)-1H-pyrazolo[3,4-c]pyridin-5-yl)pyridin-3-yl)butyramide] | 0.067 | 0.056
Cc1ccc(-c2cccc3[nH]c(-c4n[nH]c5cnc(-c6cncc(NC(=O)CC(C)C)c6)cc45)nc23)s1 [Compound 366, 3-Methyl-N-(5-(3-(4-(5-methylthiophen-2-yl)-1H-benzo[d]imidazol-2-yl)-1H-pyrazolo[3,4-c]pyridin-5-yl)pyridin-3-yl)butanamide] | 0.224 | 0.0311
Fc1cccc(-c2cccc3[nH]c(-c4n[nH]c5cnc(C6CCNCC6)cc45)nc23)c1 [Compound 937, 3-(4-(3-Fluorophenyl)-1H-benzo[d]imidazol-2-yl)-5-(piperidin-4-yl)-1H-pyrazolo[3,4-c]pyridine] | 9.99 | 3.17
COc1cc(F)cc(-c2cccc3[nH]c(-c4n[nH]c5cnc(-c6cncc(NC(=O)CC(C)C)c6)cc45)nc23)c1 [Compound 1394, N-(5-(3-(4-(3-Fluoro-5-methoxyphenyl)-1H-benzo[d]imidazol-2-yl)-1H-pyrazolo[3,4-c]pyridin-5-yl)pyridin-3-yl)-3-methylbutanamide] | 0.021 | 0.183
CN1CCN(c2cccc3[nH]c(-c4n[nH]c5cnc(-c6cncc(NC(=O)C7CCCC7)c6)cc45)nc23)CC1 [Compound 229, N-(5-(3-(4-(4-Methylpiperazin-1-yl)-1H-benzo[d]imidazol-2-yl)-1H-pyrazolo[3,4-c]pyridin-5-yl)pyridin-3-yl)cyclopentanecarboxamide] | 9.99 | 0.628
CN(C)Cc1cncc(-c2cc3c(-c4nc5c(-c6cccs6)cccc5[nH]4)n[nH]c3cn2)c1 [Compound 325, N,N-Dimethyl-1-(5-(3-(4-(thiophen-2-yl)-1H-benzo[d]imidazol-2-yl)-1H-pyrazolo[3,4-c]pyridin-5-yl)pyridin-3-yl)methanamine] | 0.009 | 0.0267
CC(C)(C)C(=O)Nc1cncc(-c2cc3c(-c4nc5c(-c6cccs6)cccc5[nH]4)n[nH]c3cn2)c1 [Compound 320, N-(5-(3-(4-(Thiophen-2-yl)-1H-benzo[d]imidazol-2-yl)-1H-pyrazolo[3,4-c]pyridin-5-yl)pyridin-3-yl)pivalamide] | 0.096 | 0.0566
CCNCc1cncc(-c2cc3c(-c4nc5c(-c6cc(F)cc(NCCN(C)C)c6)cccc5[nH]4)n[nH]c3cn2)c1 [Compound 448, N^1-(3-(2-(5-(5-((Ethylamino)methyl)pyridin-3-yl)-1H-pyrazolo[3,4-c]pyridin-3-yl)-1H-benzo[d]imidazol-4-yl)-5-fluorophenyl)-N^2,N^2-dimethylethane-1,2-diamine] | 0.009 | 0.671
c1ccc(CNCc2cncc(-c3cc4c(-c5nc6c(-c7cccnc7)cccc6[nH]5)n[nH]c4cn3)c2)cc1 [Compound 101, N-Benzyl-1-(5-(3-(4-(pyridin-3-yl)-1H-benzo[d]imidazol-2-yl)-1H-pyrazolo[3,4-c]pyridin-5-yl)pyridin-3-yl)methanamine] | 0.009 | 0.183
c1cncc(-c2cccc3[nH]c(-c4n[nH]c5cnc(-c6cncc(CN7CCCCC7)c6)cc45)nc23)c1 [Compound 93, 5-(5-(Piperidin-1-ylmethyl)pyridin-3-yl)-3-(4-(pyridin-3-yl)-1H-benzo[d]imidazol-2-yl)-1H-pyrazolo[3,4-c]pyridine] | 0.009 | 0.534
Fc1cccc(-c2cccc3[nH]c(-c4n[nH]c5cnc(-c6cnccn6)cc45)nc23)c1 [Compound 954, 3-(4-(3-Fluorophenyl)-1H-benzo[d]imidazol-2-yl)-5-(pyrazin-2-yl)-1H-pyrazolo[3,4-c]pyridine] | 0.253 | 0.045
Fc1cccc(-c2cccc3[nH]c(-c4n[nH]c5cnc(-c6cncc(CN7CCC(F)(F)C7)c6)cc45)nc23)c1 [Compound 25, 5-(5-((3,3-Difluoropyrrolidin-1-yl)methyl)pyridin-3-yl)-3-(4-(3-fluorophenyl)-1H-benzo[d]imidazol-2-yl)-1H-pyrazolo[3,4-c]pyridine] | 0.048 | 0.0873
